# Test results: patent US10821092B2, “Viscous topical ocular formulations” (Encompass Development, Inc., priority 2014, dated 2020)
# Experiments:
# rabbit eye = experiment: Blink response to surface stimulation in rabbits: onset and duration of anesthesia; assay type: in vivo, New Zealand White Rabbits; conditions: as shown in the working examples
# Procedure: This rabbit study was performed in order to evaluate various formulations. General guidelines for these studies are attached here as Attachment 1. This guideline defines the screening of six (6) formulations using two (2) different viscosity enhancing agents. The two agents selected were Carboxymethylcellulose (CMC) and Sodium Hyluronate (HA). The specifics of these formulations are described in Attachment 2.
# A statistical analysis of the experimental results for both onset of action and the duration of anesthesia is provided below. The means were compiled and statistically compared to the controls in each individual formulation. The significance or non-significance is noted as (S=Significant P value <0.001, NS=Not Significant P Value >0.05). The duration results are summarized here in Table 1.
# Six different formulations were tested and the onset and duration of action was evaluated.
# The commercially available Tetracaine hydrochloride 0.5% Ophthalmic Solution was used as the control.
# New Zealand White Rabbits were obtained from Harlan Sprague Dawley. They were housed in the animal facility at Mercer
# Dosing was performed with the experimental formulation in one eye by dropping the formulation into the rabbit eye with the aid of a dropper and the standard marketed product was administered in the contra lateral eye as a control. Multiple experiments were run with the same group of rabbits. […]
# [1] = cited from earlier work
compound,measurement,setting,value
CCCCNc1ccc(C(=O)OCCN(C)C)cc1 [tetracaine],duration of anesthesia after administration to the eye,rabbit eye,up to 55 minutes
same,onset of anesthesia,[1]; background statement on tetracaine ophthalmic solution,≤ 30 s
same,duration of anesthetic properties,"[1]; background statement, cataract surgery",15 to 20 min
